Experimental data taken from publication PMC11520566, “Discovery of pyrazole-based analogs as CDK2 inhibitors with apoptotic-inducing activity: design, synthesis and molecular dynamics study” (RSC Advances, 2024).

How the values were obtained:
MOLT-4 = assay: NCI 60 five dose assay, Leukemia; type: cell-based, human
SF-539 = assay: NCI 60 five dose assay, CNS cancer; type: cell-based, human
U251 = assay: NCI 60 five dose assay, CNS cancer; type: cell-based, human
OVCAR-3 = assay: NCI 60 five dose assay, Ovarian cancer; type: cell-based, human
OVCAR-4 = assay: NCI 60 five dose assay, Ovarian cancer; type: cell-based, human
SN12C = assay: NCI 60 five dose assay, Renal cancer; type: cell-based, human
MCF7 = assay: NCI 60 five dose assay, Breast cancer; type: cell-based, human
CDK2/cyclin A2 = molecular target: T1, CDK2/cyclin A2 (Homo sapiens, UniProt P24941); assay: In vitro CDK2/cyclin A2 enzyme inhibition assay (ADP-Glo); type: biochemical
T1 construct: purchased Promega
Method: The studied pyrazoles 2a–g, 4, 7a–d, 8a and b, 9, and 10 were assessed for their in vitro CDK2/cyclin A2 enzyme inhibition assay at a concentration of 50 μM using the Promega CDK2/cyclinA2 kinase enzyme system coupled with the ADP-Glo assay.[32,33] The percentage enzyme activity was the lowest for five compounds, namely 4, 7a, 7d, 8a, and 9 with values of 24.7%, 17.5%, 11.5%, 27.1% and 14.5%, respectively.
The in vitro assay of CDK2/cyclin A2 protein kinase was carried out on all the synthesized compounds. The kinase assay was performed in a 96-well white plate with a reaction volume of […]. The reaction was performed in four steps as follows: 2.5 μL of the test compounds or 5% DMSO and 5 μL of CDK2/cyclin A2 enzyme (1.6 ng) was added, and then incubated at room temperature for 30 min. Then, 5 μL of 50 μM ATP. 0.1 μg μL^−1 histone H1 was added and incubated for 10 min. The reaction was stopped by adding 12.5 μL of ADP-Glo™ Reagent and incubated for 40 min. Then 25 μL of kinase detection reagent was added to each well and incubated for 60 min before detection with luminescence (Integration time 0.5–1 s).[25,32,33]

UACC-257 = assay: NCI 60 single dose screen, Melanoma; type: cell-based, human; details: single dose 10 μM
Method: (§1) The newly synthesized pyrazoles 2a–g, 7a–d, 8a and b, 9, and 10 were submitted to the National Cancer Institute (NCI) Developmental Therapeutics Program (http://www.dtp.nci.nih.gov) for assessment of their potential antiproliferative activity against a panel of NCI 60 cancer cell lines. All compounds were approved for screening against the approved 60 cancer cell lines at a single dose of 10 μM. The human cancer cell lines were derived from 9 variant cancer types including leukemia, melanoma, lung, colon, CNS, ovarian, renal, prostate and breast cancers. The results are presented as percentage of growth inhibition (GI%) of the screened compounds against the full panel of cell lines.
(§2) Under sterile conditions, the cell lines were grown in RPMI 1640 media (Gibco, NY, USA) supplemented with 10% fetal bovine serum (Biocell, CA, USA), and […] cell/mL was used to test the growth inhibition activity of the synthesized compounds. The compounds with concentrations ranging from 0.01 to 100 μM were prepared in phosphate buffer saline. Each compound was initially solubilized in dimethyl sulfoxide (DMSO); however, each final dilution contained less than 1% DMSO. Solutions of different concentrations (0.2 mL) were pipetted into the separate well of a microtiter tray in duplicate. Cell culture (1.8 mL) containing a cell population of […] cells per mL was pipetted into each well. Controls, containing only phosphate buffer saline and DMSO at identical dilutions, were also prepared in the same manner. These cultures were incubated in a humidified incubator at 37 °C. The incubator was supplied with 5% CO2 atmosphere. After 48 h, the cells in each well were diluted 10 times with saline and counted using a Coulter counter. The counts were corrected for the dilution.[34]

HCT-116 = assay: NCI 60 single dose screen, Colon cancer; type: cell-based, human; details: single dose 10 μM
Method: as §1, §2

HT29 = assay: NCI 60 single dose screen, Colon cancer; type: cell-based, human; details: single dose 10 μM
Method: as §1, §2

HCT-116 cells = assay: Flow cytometry cell cycle analysis; type: cell-based; details: 1.806 μM
Method: Cell cycle analysis was conducted to explore the mechanism and the mode of action of the newly synthesized compounds as anticancer agents, typically inducing cytotoxicity by activating signaling pathways that trigger apoptosis.[35] […] Compound 4 was further subjected to cell cycle analysis following the established protocols.[35]
The cell cycle analysis protocol was performed on compound 4 on HCT-116 cells. This test is based on the content of DNA measured by staining using propidium iodide. Initially, the cells were washed in PBS before being kept at 4 °C for 3 min dropwise using the vortex addition of cold 70% ethanol to avoid cell clumping and to ensure fixation as well. Then, […] of a stock of […] ribonuclease was added to selectively stain only DNA. Finally, […] of a stock solution of […] of propidium iodide was added.[35]

MDA-MB-468 = assay: NCI 60 five dose assay, Breast cancer
[1] = Homo sapiens, read-out: LC50 (the source's name)

CC(=NNc1ccc(S(N)(=O)=O)cc1)c1ccc(NN=C2C(=O)NN=C2Nc2ccccc2)cc1 [Compound 4, 4-(2-(1-(4-(2-(5-oxo-3-(phenylamino)-1,5-dihydro-4H-pyrazol-4-ylidene)hydrazinyl)phenyl)ethylidene)hydrazinyl)benzene sulfonamide]
GI50 (MOLT-4; Homo sapiens): 1640 nM
CC50 (MOLT-4; [1]): 34.9 µM
Percent Growth (MOLT-4; Log10 Concentration -4.0 Molar): -69%
Percent Growth (MOLT-4; Log10 Concentration -5.0 Molar): -28%
Percent Growth (MOLT-4; Log10 Concentration -6.0 Molar): 71%
Percent Growth (MOLT-4; Log10 Concentration -7.0 Molar): 95%
Percent Growth (MOLT-4; Log10 Concentration -8.0 Molar): 96%
GI50 (SF-539; Homo sapiens): 1580 nM
CC50 (SF-539; [1]): 8.56 µM
Percent Growth (SF-539; Log10 Concentration -4.0 Molar): -100%
Percent Growth (SF-539; Log10 Concentration -5.0 Molar): -59%
Percent Growth (SF-539; Log10 Concentration -6.0 Molar): 77%
Percent Growth (SF-539; Log10 Concentration -7.0 Molar): 94%
Percent Growth (SF-539; Log10 Concentration -8.0 Molar): 89%
GI50 (U251; Homo sapiens, U-251): 1880 nM
CC50 (U251; Homo sapiens, U-251, read-out: LC50 (the source's name)): 7.51 µM
Percent Growth (U251; Log10 Concentration -4.0 Molar): -100%
Percent Growth (U251; Log10 Concentration -5.0 Molar): -71%
Percent Growth (U251; Log10 Concentration -6.0 Molar): 96%
Percent Growth (U251; Log10 Concentration -7.0 Molar): 105%
Percent Growth (U251; Log10 Concentration -8.0 Molar): 95%
GI50 (OVCAR-3; Homo sapiens): 1870 nM
CC50 (OVCAR-3; [1]): 12.5 µM
Percent Growth (OVCAR-3; Log10 Concentration -4.0 Molar): -100%
Percent Growth (OVCAR-3; Log10 Concentration -5.0 Molar): -45%
Percent Growth (OVCAR-3; Log10 Concentration -6.0 Molar): 86%
Percent Growth (OVCAR-3; Log10 Concentration -7.0 Molar): 89%
Percent Growth (OVCAR-3; Log10 Concentration -8.0 Molar): 82%
GI50 (OVCAR-4; Homo sapiens): 2840 nM
CC50 (OVCAR-4; [1]): 40.7 µM
Percent Growth (OVCAR-4; Log10 Concentration -4.0 Molar): -80%
Percent Growth (OVCAR-4; Log10 Concentration -5.0 Molar): -3%
Percent Growth (OVCAR-4; Log10 Concentration -6.0 Molar): 94%
Percent Growth (OVCAR-4; Log10 Concentration -7.0 Molar): 98%
Percent Growth (OVCAR-4; Log10 Concentration -8.0 Molar): 94%
GI50 (SN12C; Homo sapiens): 2380 nM
CC50 (SN12C; [1]): 23.5 µM
Percent Growth (SN12C; Log10 Concentration -4.0 Molar): -100%
Percent Growth (SN12C; Log10 Concentration -5.0 Molar): -21%
Percent Growth (SN12C; Log10 Concentration -6.0 Molar): 93%
Percent Growth (SN12C; Log10 Concentration -7.0 Molar): 92%
Percent Growth (SN12C; Log10 Concentration -8.0 Molar): 95%
GI50 (MCF7; Homo sapiens): 2400 nM
CC50 (MCF7; [1]): 27.4 µM
Percent Growth (MCF7; Log10 Concentration -4.0 Molar): -97%
Percent Growth (MCF7; Log10 Concentration -5.0 Molar): -14%
Percent Growth (MCF7; Log10 Concentration -6.0 Molar): 89%
Percent Growth (MCF7; Log10 Concentration -7.0 Molar): 93%
Percent Growth (MCF7; Log10 Concentration -8.0 Molar): 93%
percentage enzyme activity (CDK2/cyclin A2; at 50 μM): 24.7%
IC50 (CDK2/cyclin A2; n = 3, read-out: IC50 against CDK2/cyclin A2): 3.82 µM
Relative activity (CDK2/cyclin A2; supplement S1, DMSO = 100, screen at 50 μM): 24.7
GI% (UACC-257): 94.37%
GI% (HCT-116): 99.70%
GI% (HT29): 95.46%
cell cycle result (HCT-116 cells): apoptotic cell growth arrest occurring at the G1 phase
%G2/M (HCT-116 cells; control 6.82): 3.79%
%S (HCT-116 cells; control 33.81): 23.05%
%G0/G1 (HCT-116 cells; control 59.37): 73.16%
cell cycle result (HCT-116 cells; listed as cpd4): cell growth arrest@ G1
GI50 (MDA-MB-468; Homo sapiens, MDA-MB-468): 1400 nM
CC50 (MDA-MB-468; Homo sapiens, MDA-MB-468, read-out: LC50): 6.41 µM
TGI (MDA-MB-468; MDA-MB-468): 3 µM
